Data: paper PMC10712727, “Safety, Tolerability, and Pharmacokinetics of Senaparib, a Novel PARP1/2 Inhibitor, in Chinese Patients With Advanced Solid Tumors: A Phase I Trial” (The Oncologist, 2023)

Test system: patients with advanced solid tumors
Test: Safety: treatment-emergent and senaparib-related adverse events graded per NCI CTCAE v4.03
Type: in vivo
Settings: TEAE
Protocol: This phase I, open-label, multicenter, dose-escalation, and dose-expansion study was conducted at three national clinical institutions in China. […] At baseline, all patients enrolled in the dose-escalation phase had to have at least one evaluable lesion, and those in the dose-expansion period had to have at least one measurable lesion, according to Response Evaluation Criteria in Solid Tumors version 1.1 (RECIST v1.1).[16] Entry to the dose-expansion cohort required the presence of a BRCA mutation, with the exception of patients with ovarian carcinoma, fallopian tube carcinoma, and primary peritoneal carcinoma. Full study eligibility criteria are provided in Supplementary Table S1.
Dose escalation was conducted using a modified Fibonacci 3 + 3 method (Supplementary Fig. S1).[17] Patients were administered oral senaparib from a planned starting dose of 2 mg once daily (QD), with preliminary dose escalation to 120 mg via nine dose groups, in order of their entry into the study. At a given dose level, each patient received a single dose of senaparib followed by a 7-day washout period. They then entered a continuous dosing period to confirm the safety and PK profile, in which they received senaparib QD from day 1 to day 21 of each 3-week cycle. Progression to the next higher dose required approval from the Data Safety Monitoring Committee (DSMC) upon review of the safety and PK data of the previous dose. A 50-mg twice-daily (BID) dosing group was added (planned enrollment, n = 6 patients) based on a DSMC review of the safety, PK, and efficacy analysis of the completed QD dose groups in the phase I clinical trial of senaparib dose escalation in Australia (NCT03507543), which commenced prior to the start of this trial.
The dose-expansion period included 3 populations: dose groups in which at least one patient achieved complete response (CR) or partial response (PR) per RECIST v1.1[16] and 1 dose group higher (evaluated for safety), as well as the dose group at the maximum tolerated dose (MTD)/recommended phase II dose (RP2D). Each of these groups included those patients in the respective dose-escalation group plus a planned additional 10 patients (approximately 20 patients in the MTD/RP2D group) with BRCA^mut+ solid tumors (ovarian, breast, or prostate cancer were preferred, and ovarian cancer could be BRCA wild type). Patients received senaparib monotherapy orally QD or BID (50-mg dose only) over each 3-week cycle until disease progression or unacceptable toxicity.
DLTs were predefined toxicities (Supplementary Table S2) recorded over the 7 days following the single-dose administration of senaparib and during the first treatment cycle (day 1-day 21) for each dose group in the dose-escalation period only. The MTD was defined as the maximum dose at which ≤1/6 patients experienced a DLT. Senaparib PK parameters were derived from blood samples collected from patients after the single administration, and at regular intervals during the first cycle of the dose-escalation and dose-expansion periods. Plasma concentrations of senaparib were determined using high-performance liquid chromatography-tandem mass spectrometry. Tumor response was assessed every 6 weeks per RECIST v1.1,[16] recording objective response rate (ORR), disease control rate (DCR), duration of response (DOR), and progression-free survival (PFS) by dose level for all patients and for those harboring BRCA^mut+ tumors.

## O=C(c1cc(Cn2c(=O)[nH]c(=O)c3c(F)cccc32)ccc1F)N1CCN(c2ncccn2)CC1 [Senaparib]
60 mg QD n = 5
  Asthenia, Gr≥3: 0 n (%)
  Blood bilirubin increased, All: 0 n (%)
  Blood bilirubin increased, Gr≥3: 0 n (%)
  Blood creatinine increased, All: 1 (20.0) n (%)
  Blood creatinine increased, Gr≥3: 0 n (%)
  Hypokalemia, All: 1 (20.0) n (%)
  Hypokalemia, Gr≥3: 0 n (%)
  Hyponatremia, All: 1 (20.0) n (%)
  Hyponatremia, Gr≥3: 0 n (%)
  Nausea, All: 1 (20.0) n (%)
  Nausea, Gr≥3: 0 n (%)
  Neutrophil count decreased, All: 1 (20.0) n (%)
  Neutrophil count decreased, Gr≥3: 0 n (%)
  Pain in extremity, All: 0 n (%)
  Pain in extremity, Gr≥3: 0 n (%)
  Platelet count decreased, All: 2 (40.0) n (%)
  Platelet count decreased, Gr≥3: 0 n (%)
  Protein in urine, All: 1 (20.0) n (%)
  Protein in urine, Gr≥3: 0 n (%)
  Vomiting, All: 1 (20.0) n (%)
  Vomiting, Gr≥3: 1 (20.0) n (%)
  WBC decreased, All: 2 (40.0) n (%)
  WBC decreased, Gr≥3: 0 n (%)
80 mg QD n = 9
  ALT increased, All: 1 (11.1) n (%)
  ALT increased, Gr≥3: 0 n (%)
  AST increased, All: 2 (22.2) n (%)
  AST increased, Gr≥3: 0 n (%)
  Abdominal distension, All: 3 (33.3) n (%)
  Abdominal distension, Gr≥3: 0 n (%)
  Anemia (incl. hemoglobin decreased), All: 7 (77.8) n (%)
  Anemia (incl. hemoglobin decreased), Gr≥3: 3 (33.3) n (%)
  Appetite decreased, All: 3 (33.3) n (%)
  Appetite decreased, Gr≥3: 0 n (%)
  Asthenia, All: 2 (22.2) n (%)
  Asthenia, Gr≥3: 0 n (%)
  Blood bilirubin increased, All: 2 (22.2) n (%)
  Blood bilirubin increased, Gr≥3: 0 n (%)
  Blood creatinine increased, All: 2 (22.2) n (%)
  Blood creatinine increased, Gr≥3: 0 n (%)
  Hypokalemia, All: 3 (33.3) n (%)
  Hypokalemia, Gr≥3: 0 n (%)
  Hyponatremia, All: 1 (11.1) n (%)
  Hyponatremia, Gr≥3: 0 n (%)
  Nausea, All: 4 (44.4) n (%)
  Nausea, Gr≥3: 0 n (%)
  Neutrophil count decreased, All: 4 (44.4) n (%)
  Neutrophil count decreased, Gr≥3: 1 (11.1) n (%)
  Pain in extremity, All: 2 (22.2) n (%)
  Pain in extremity, Gr≥3: 0 n (%)
  Platelet count decreased, All: 4 (44.4) n (%)
  Platelet count decreased, Gr≥3: 2 (22.2) n (%)
  Protein in urine, All: 0 n (%)
  Protein in urine, Gr≥3: 0 n (%)
  Vomiting, All: 3 (33.3) n (%)
  Vomiting, Gr≥3: 1 (11.1) n (%)
  WBC decreased, All: 5 (55.6) n (%)
  WBC decreased, Gr≥3: 1 (11.1) n (%)
100 mg QD n = 20
  ALT increased, All: 5 (25.0) n (%)
  ALT increased, Gr≥3: 0 n (%)
  AST increased, All: 4 (20.0) n (%)
  AST increased, Gr≥3: 1 (5.0) n (%)
  Abdominal distension, All: 0 n (%)
  Abdominal distension, Gr≥3: 0 n (%)
  Anemia (incl. hemoglobin decreased), All: 11 (55.0) n (%)
  Anemia (incl. hemoglobin decreased), Gr≥3: 4 (20.0) n (%)
  Appetite decreased, All: 5 (25.0) n (%)
  Appetite decreased, Gr≥3: 0 n (%)
  Asthenia, All: 5 (25.0) n (%)
  Asthenia, Gr≥3: 0 n (%)
  Blood bilirubin increased, All: 3 (15.0) n (%)
  Blood bilirubin increased, Gr≥3: 0 n (%)
  Blood creatinine increased, All: 2 (10.0) n (%)
  Blood creatinine increased, Gr≥3: 0 n (%)
  Hypokalemia, All: 0 n (%)
  Hypokalemia, Gr≥3: 0 n (%)
  Hyponatremia, All: 2 (10.0) n (%)
  Hyponatremia, Gr≥3: 0 n (%)
  Nausea, All: 4 (20.0) n (%)
  Nausea, Gr≥3: 0 n (%)
  Neutrophil count decreased, All: 5 (25.0) n (%)
  Neutrophil count decreased, Gr≥3: 2 (10.0) n (%)
  Pain in extremity, All: 2 (10.0) n (%)
  Pain in extremity, Gr≥3: 0 n (%)
  Platelet count decreased, All: 6 (30.0) n (%)
  Platelet count decreased, Gr≥3: 1 (5.0) n (%)
  Protein in urine, All: 2 (10.0) n (%)
  Protein in urine, Gr≥3: 0 n (%)
  Vomiting, All: 5 (25.0) n (%)
  Vomiting, Gr≥3: 0 n (%)
  WBC decreased, All: 9 (45.0) n (%)
  WBC decreased, Gr≥3: 1 (5.0) n (%)
120 mg QD n = 4
  ALT increased, All: 2 (50.0) n (%)
  ALT increased, Gr≥3: 1 (25.0) n (%)
  AST increased, All: 2 (50.0) n (%)
  AST increased, Gr≥3: 0 n (%)
  Abdominal distension, All: 0 n (%)
  Abdominal distension, Gr≥3: 0 n (%)
  Anemia (incl. hemoglobin decreased), All: 3 (75.0) n (%)
  Anemia (incl. hemoglobin decreased), Gr≥3: 1 (25.0) n (%)
  Appetite decreased, All: 1 (25.0) n (%)
  Appetite decreased, Gr≥3: 0 n (%)
  Asthenia, All: 2 (50.0) n (%)
  Asthenia, Gr≥3: 0 n (%)
  Blood bilirubin increased, All: 2 (50.0) n (%)
  Blood bilirubin increased, Gr≥3: 1 (25.0) n (%)
  Blood creatinine increased, All: 1 (25.0) n (%)
  Blood creatinine increased, Gr≥3: 0 n (%)
  Hypokalemia, All: 0 n (%)
  Hypokalemia, Gr≥3: 0 n (%)
  Hyponatremia, All: 0 n (%)
  Hyponatremia, Gr≥3: 0 n (%)
  Nausea, All: 1 (25.0) n (%)
  Nausea, Gr≥3: 0 n (%)
  Neutrophil count decreased, All: 1 (25.0) n (%)
  Neutrophil count decreased, Gr≥3: 0 n (%)
  Pain in extremity, All: 1 (25.0) n (%)
